Consider 36 compounds from patent US20130324576A1, “THERAPEUTIC COMPOUNDS” (Takeda Pharmaceutical Company Limited, priority 2012, published 2013).

The structures appear in SMILES notation.

The target in the test is T1, human PKR1 receptors (Homo sapiens, UniProt Q8TCW9).
T1 construct: expressed in transfected cells; host or cells: RBL2H3 cells (rat basophilic leukaemia line) expressing human PKR1
T1 sequence (Q8TCW9 whole entry): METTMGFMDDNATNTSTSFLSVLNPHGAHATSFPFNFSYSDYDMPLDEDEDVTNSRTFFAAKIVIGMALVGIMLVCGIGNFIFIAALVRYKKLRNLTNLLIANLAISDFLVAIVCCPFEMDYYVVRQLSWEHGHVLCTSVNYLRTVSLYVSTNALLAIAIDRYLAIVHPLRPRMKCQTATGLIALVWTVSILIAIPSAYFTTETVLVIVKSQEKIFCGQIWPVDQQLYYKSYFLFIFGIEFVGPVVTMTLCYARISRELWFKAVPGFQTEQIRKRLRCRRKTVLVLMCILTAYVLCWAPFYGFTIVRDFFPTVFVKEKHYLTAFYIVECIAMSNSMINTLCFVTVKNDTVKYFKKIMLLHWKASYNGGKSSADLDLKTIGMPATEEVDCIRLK
Put plainly: PKR1 antagonist assay: block of PK1-mediated intracellular calcium release (FLIPR Tetra, Calcium 5 dye). Particulars: RBL2H3 cells expressing human PKR1; 10 min pre-incubation, stimulation with PK1 at EC80; calcium fluorescence. In kind it is cell-based. The protocol: Prokineticin receptor 1 (PKR1) antagonists may be functionally assessed by measurement of change in intracellular calcium levels induced by Gq mediated increase in inositol triphosphate (IP3) levels. The ability of a compound to block the intracellular release of calcium mediated by PK1 in RBL2H3 cells expressing human PKR1 receptors is determined as a measure of the compound's antagonist activity in vitro.
Approximately 10,000 cells per assay well are seeded in normal culture medium in a 384 well plate (Corning). Twenty-four hours after seeding, the cells are loaded with a calcium sensitive fluorescent dye by replacing the culture medium with assay buffer (1× Hanks buffered saline, 25 mM HEPES, 0.1% w/v fatty acid free BSA (bovine serum albumin), pH 7.4) containing 1 mM probenecid and 1× Calcium 5 Reagent (Molecular Devices). Cells are incubated at 37° C. for 1 hour to allow for dye uptake.
To test for antagonist activity, test compounds at a final concentration range between 0.32 nM-10 μM (diluted in assay buffer) are added to the assay wells and allowed to incubate for 10 minutes prior to stimulation with PK1. After incubation with test compounds the assay plate is placed in a FLIPR Tetra (Molecular Devices) and PK1 (diluted in assay buffer) is added at the determined EC80 concentration (final). Ligand-dependent changes in intracellular calcium levels are determined by measuring changes in fluorescence of the dye at […] following excitation at 485 nm.
On the technique in general: Calcium flux is commonly read through the fluorescence of an indicator in the cells.
As a reminder, the IC50 is the concentration that gives 50% inhibition. For the compound `COC(c1ccc(Cl)cc1)C1CCN(S(=O)(=O)c2c(C)n[nH]c2C)CC1` (single isomer, unassigned) [Example 97, 4-((4-Chlorophenyl)(methoxy)methyl)-1-((3,5-dimethyl-1H-pyrazol-4-yl)sulfonyl)piperidine], the IC50 was 4620 nM.

On to `COC(c1ccc(Cl)cc1)C1CCN(S(=O)(=O)c2c(C)n[nH]c2C)CC1` (single isomer, unassigned) [Example 98, 4-((4-Chlorophenyl)(methoxy)methyl)-1-((3,5-dimethyl-1H-pyrazol-4-yl)sulfonyl)piperidine], for which the half-maximal inhibitory concentration (IC50) is 160 nM.

`Cc1n[nH]c(C)c1S(=O)(=O)N1CCC(C(F)c2ccc(Cl)cc2)CC1` (single isomer, unassigned) [Example 106, 4-((4-Chlorophenyl)fluoromethyl)-1-((3,5-dimethyl-1H-pyrazol-4-yl)sulfonyl)piperidine]: the IC50 amounted to 4000 nM.

With `Cc1n[nH]c(C)c1S(=O)(=O)N1CCC(C(F)c2ccc(Cl)cc2)CC1` (single isomer, unassigned) [Example 107, 4-((4-Chlorophenyl)fluoromethyl)-1-((3,5-dimethyl-1H-pyrazol-4-yl)sulfonyl)piperidine], the half-inhibitory concentration (IC50) came out at 310 nM.

Take `Cc1nn(C)c(C)c1S(=O)(=O)N1CCC(Oc2ccc(Cl)c(Cl)c2)CC1` [Example 1, 4-(3,4-Dichlorophenoxy)-1-((1,3,5-trimethyl-1H-pyrazol-4-yl)sulfonyl)piperidine]: the IC50 was 1400 nM.

`Cc1n[nH]c(C)c1S(=O)(=O)N1CCC(Oc2ccc(Cl)c(Cl)c2)CC1` [Example 2, 4-(3,4-Dichlorophenoxy)-1-[(3,5-dimethyl-1H-pyrazol-4-yl)sulfonyl]piperidine]: the IC50 was determined as 1000 nM.

`Cc1nn(C)c(C)c1S(=O)(=O)N1CCC(Oc2ccc(OC(F)(F)F)cc2)CC1` [Example 3, 4-[4-(Trifluoromethoxy)phenoxy]-1-[(1,3,5-trimethyl-1H-pyrazol-4-yl)sulfonyl]piperidine]: the half-inhibitory concentration (IC50) worked out at 1400 nM.

For `Cc1ccc(OC2CCN(S(=O)(=O)c3c(C)nn(C)c3C)CC2)cc1` [Example 4, 4-(4-Methylphenoxy)-1-[(1,3,5-trimethyl-1H-pyrazol-4-yl)sulfonyl]piperidine], the IC50 came out at 820 nM.

Consider `Cc1nn(C)c(C)c1S(=O)(=O)N1CCC(Oc2ccc(Cl)cc2)CC1` [Example 5, 4-(4-Chlorophenoxy)-1-[(1,3,5-trimethyl-1H-pyrazol-4-yl)sulfonyl]piperidine], for which the 50% inhibitory concentration (IC50) is 530 nM.

Consider `Cc1nn(C)c(C)c1S(=O)(=O)N1CCC(Oc2cccc(Cl)c2)CC1` [Example 6, 4-(3-Chlorophenoxy)-1-[(1,3,5-trimethyl-1H-pyrazol-4-yl)sulfonyl]piperidine], for which the concentration for half-maximal inhibition (IC50) was 2200 nM.

Turning to `Cc1nn(C)c(C)c1S(=O)(=O)N1CCC(Oc2ccc(C#N)cc2)CC1` [Example 7, 4-({1-[(1,3,5-Trimethyl-1H-pyrazol-4-yl)sulfonyl]piperidin-4-yl}oxy)benzonitrile], the half-inhibitory concentration (IC50) worked out at 7300 nM.

As to `Cc1n[nH]c(C)c1S(=O)(=O)N1CCC(Oc2ccc(Cl)cc2)CC1` [Example 8, 4-(4-Chlorophenoxy)-1-[(3,5-dimethyl-1H-pyrazol-4-yl)sulfonyl]piperidine], the IC50 was 1450 nM.

For the compound `CCn1nc(C)c(S(=O)(=O)N2CCC(Oc3ccc(C)cc3)CC2)c1C` [Example 9, 1-[(1-Ethyl-3,5-dimethyl-1H-pyrazol-4-yl)sulfonyl]-4-(4-methylphenoxy)piperidine], the half-inhibitory concentration (IC50) worked out at 2300 nM.

As for `Cc1ccc(OC2CCN(S(=O)(=O)c3c(C(F)(F)F)nn(C)c3C)CC2)cc1` [Example 10, 1-{[1,5-Dimethyl-3-(trifluoromethyl)-1H-pyrazol-4-yl]sulfonyl}-4-(4-methylphenoxy)piperidine], the 50% inhibitory concentration (IC50) stood at 1700 nM.

For `Cc1ccc(OC2CCN(S(=O)(=O)c3c(C)nn(C)c3Cl)CC2)cc1` [Example 11, 1-[(5-Chloro-1,3-dimethyl-1H-pyrazol-4-yl)sulfonyl]-4-(4-methylphenoxy)piperidine], the half-inhibitory concentration (IC50) was 860 nM.

In the case of `Cc1nn(C)c(C)c1S(=O)(=O)N1CCC(Oc2ccc(C(F)(F)F)cc2)CC1` [Example 12, 4-[4-(Trifluoromethyl)phenoxy]-1-[(1,3,5-trimethyl-1H-pyrazol-4-yl)sulfonyl]piperidine], the IC50 was found to be 4700 nM.

On to `Cc1nn(C)c(C)c1S(=O)(=O)N1CCC(Oc2ccc(Cl)cc2Cl)CC1` [Example 13, 4-(2,4-Dichlorophenoxy)-1-[(1,3,5-trimethyl-1H-pyrazol-4-yl)sulfonyl]piperidine], for which the IC50 turned out to be 790 nM.

In the case of `Cc1nn(C)c(C)c1S(=O)(=O)N1CCC(Oc2ccc(Br)cc2F)CC1` [Example 14, 4-(4-Bromo-2-fluorophenoxy)-1-[(1,3,5-trimethyl-1H-pyrazol-4-yl)sulfonyl]piperidine], the IC50 came out at 470 nM.

For the compound `Cc1nn(C)c(Cl)c1S(=O)(=O)N1CCC(Oc2ccc(Cl)cc2)CC1` [Example 15, 1-[(5-Chloro-1,3-dimethyl-1H-pyrazol-4-yl)sulfonyl]-4-(4-chlorophenoxy)piperidine], the IC50 worked out at 2900 nM.

As to `Cc1c(S(=O)(=O)N2CCC(Oc3ccc(Cl)cc3)CC2)c(C(F)(F)F)nn1C` [Example 16, 4-(4-Chlorophenoxy)-1-{[1,5-dimethyl-3-(trifluoromethyl)-1H-pyrazol-4-yl]sulfonyl}piperidine], the IC50 came out at 4600 nM.

`COc1cccc(OC2CCN(S(=O)(=O)c3c(C)nn(C)c3C)CC2)c1` [Example 17, 4-(3-Methoxyphenoxy)-1-[(1,3,5-trimethyl-1H-pyrazol-4-yl)sulfonyl]piperidine]: the IC50 was found to be 3600 nM.

On to `COc1ccc(OC2CCN(S(=O)(=O)c3c(C)nn(C)c3C)CC2)cc1` [Example 18, 4-(4-Methoxyphenoxy)-1-[(1,3,5-trimethyl-1H-pyrazol-4-yl)sulfonyl]piperidine], for which the IC50 came out at 7000 nM.

In the case of `Cc1nn(C)c(C)c1S(=O)(=O)N1CCC(Oc2ccccc2)CC1` [Example 19, 4-Phenoxy-1-[(1,3,5-trimethyl-1H-pyrazol-4-yl)sulfonyl]piperidine], the IC50 was 5600 nM.

As to `Cc1nn(C)c(C)c1S(=O)(=O)N1CCC(Oc2ccc(F)cc2)CC1` [Example 20, 4-(4-Fluorophenoxy)-1-[(1,3,5-trimethyl-1H-pyrazol-4-yl)sulfonyl]piperidine], the concentration for half-maximal inhibition (IC50) worked out at 3600 nM.

For `Cc1nn(C)c(C)c1S(=O)(=O)N1CCC(Oc2ccc(Cl)cc2)C(C)C1` (stereo not drawn) [Example 21, 4-(4-Chlorophenoxy)-3-methyl-1-[(1,3,5-trimethyl-1H-pyrazol-4-yl)sulfonyl]piperidine], the IC50 is 2100 nM.

In the case of `Cc1n[nH]c(C)c1S(=O)(=O)N1CCC(Oc2ccc(Cl)cc2Cl)CC1` [Example 22, 4-(2,4-Dichlorophenoxy)-1-[(3,5-dimethyl-1H-pyrazol-4-yl)sulfonyl]piperidine], the half-inhibitory concentration (IC50) amounted to 1180 nM.

Regarding `Cc1nn(C)c(C)c1S(=O)(=O)N1CCC(Oc2ccc3ccccc3c2)CC1` [Example 23, 4-(Naphthalen-2-yloxy)-1-[(1,3,5-trimethyl-1H-pyrazol-4-yl)sulfonyl]piperidine], the IC50 came to 220 nM.

As to `Cc1nn(C)c(C)c1S(=O)(=O)N1CCC(Oc2ccc(Cl)cc2)CC1C` (stereo not drawn) [Example 24, 4-(4-Chlorophenoxy)-2-methyl-1-[(1,3,5-trimethyl-1H-pyrazol-4-yl)sulfonyl]piperidine], the IC50 was 1500 nM.

As for `Cc1nn(C)c(Cl)c1S(=O)(=O)N1CCC(Oc2ccc(Cl)cc2Cl)CC1` [Example 25, 1-[(5-Chloro-1,3-dimethyl-1H-pyrazol-4-yl)sulfonyl]-4-(2,4-dichlorophenoxy)piperidine], the IC50 stood at 1300 nM.

Regarding `Cc1nn(C)cc1S(=O)(=O)N1CCC(Oc2ccc(Cl)cc2Cl)CC1` [Example 27, 4-(2,4-Dichlorophenoxy)-1-[(1,3-dimethyl-1H-pyrazol-4-yl)sulfonyl]piperidine], the IC50 turned out to be 5600 nM.

Consider `CCc1nn(C)c(CC)c1S(=O)(=O)N1CCC(Oc2ccc(Cl)cc2Cl)CC1` [Example 28, 4-(2,4-Dichlorophenoxy)-1-[(3,5-diethyl-1-methyl-1H-pyrazol-4-yl)sulfonyl]piperidine], for which the IC50 was determined as 320 nM.

As for `Cc1nn(C(F)F)c(C)c1S(=O)(=O)N1CCC(Oc2ccc(Cl)cc2Cl)CC1` [Example 29], the concentration for half-maximal inhibition (IC50) was found to be 1100 nM.

`Cc1nn(C)c(C)c1S(=O)(=O)N1CCC(Oc2ccc(Cl)cc2F)CC1` [Example 30, 4-(4-Chloro-2-fluorophenoxy)-1-(trimethyl-1H-pyrazole-4-sulfonyl)piperidine]: the IC50 amounted to 510 nM.

`Cc1nn(C)c(C)c1S(=O)(=O)N1CCC(Oc2ccc(Cl)cc2C#N)CC1` [Example 31, 5-Chloro-2-{[1-(trimethyl-1H-pyrazole-4-sulfonyl)piperidin-4-yl]oxy}benzonitrile]: the half-maximal inhibitory concentration (IC50) turned out to be 310 nM.

On to `Cc1n[nH]c(C)c1S(=O)(=O)N1CCC(Oc2ccc(OC(F)(F)F)cc2)CC1` [Example 32, 1-[(3,5-Dimethyl-1H-pyrazol-4-yl)sulfonyl]-4-[4-(trifluoromethoxy)phenoxy]piperidine], for which the IC50 is 3400 nM.

As to `Cc1n[nH]c(C)c1S(=O)(=O)N1CCC(Oc2ccc3ccccc3c2)CC1` [Example 33, 1-[(3,5-Dimethyl-1H-pyrazol-4-yl)sulfonyl]-4-(naphthalen-2-yloxy)piperidine], the IC50 is 440 nM.
